Legend:
[1] = biological target: AAK1 (human) (UniProt Q2M2I8); assay: KINOMEscan competition binding; conditions: compound 10.0 µM
[2] = biological target: CSNK1G2 (human) (UniProt P78368); assay: KINOMEscan competition binding; conditions: compound 10.0 µM
[3] = biological target: BMP2K (human) (UniProt Q9NSY1); assay: KINOMEscan competition binding; conditions: compound 10.0 µM
[4] = biological target: CSNK2A1 (human) (UniProt P68400); assay: KINOMEscan competition binding; conditions: compound 10.0 µM
[5] = biological target: DAPK2 (human) (UniProt Q9UIK4); assay: KINOMEscan competition binding; conditions: compound 10.0 µM
Sequence of DAPK2 (human) (Q9UIK4 whole entry, looked up): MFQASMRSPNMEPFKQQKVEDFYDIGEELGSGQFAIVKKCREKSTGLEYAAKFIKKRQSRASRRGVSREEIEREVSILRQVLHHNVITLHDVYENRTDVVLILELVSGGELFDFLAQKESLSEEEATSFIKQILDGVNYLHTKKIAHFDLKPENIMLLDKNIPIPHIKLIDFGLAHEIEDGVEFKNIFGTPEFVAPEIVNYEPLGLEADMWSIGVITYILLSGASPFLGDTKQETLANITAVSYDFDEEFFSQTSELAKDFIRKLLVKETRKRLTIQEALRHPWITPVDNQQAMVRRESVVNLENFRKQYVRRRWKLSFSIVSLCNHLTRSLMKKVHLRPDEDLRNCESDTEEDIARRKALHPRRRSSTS

[6] = biological target: RPS6KA4 KD2 (human) (UniProt O75676); assay: KINOMEscan competition binding; conditions: compound 10.0 µM
[7] = biological target: CSNK2A2 (human) (UniProt P19784); assay: KINOMEscan competition binding; conditions: compound 10.0 µM
[8] = biological target: RPS6KA5 KD2 (human) (UniProt O75582); assay: KINOMEscan competition binding; conditions: compound 10.0 µM
[9] = biological target: DAPK3 (human) (UniProt O43293); assay: KINOMEscan competition binding; conditions: compound 10.0 µM
[10] = biological target: RPS6KA2 KD2 (human) (UniProt Q15349); assay: KINOMEscan competition binding; conditions: compound 10.0 µM
[11] = tested on: EIF2AK4 KD2 (human), Q9P2K8 [S808G]; assay: KINOMEscan competition binding; conditions: compound 10.0 µM
[12] = biological target: TAOK3 (human) (UniProt Q9H2K8); assay: KINOMEscan competition binding; conditions: compound 10.0 µM
[13] = biological target: PIM1 (human) (UniProt P11309); assay: KINOMEscan competition binding; conditions: compound 10.0 µM
Sequence of PIM1 (human) (P11309 whole entry, looked up): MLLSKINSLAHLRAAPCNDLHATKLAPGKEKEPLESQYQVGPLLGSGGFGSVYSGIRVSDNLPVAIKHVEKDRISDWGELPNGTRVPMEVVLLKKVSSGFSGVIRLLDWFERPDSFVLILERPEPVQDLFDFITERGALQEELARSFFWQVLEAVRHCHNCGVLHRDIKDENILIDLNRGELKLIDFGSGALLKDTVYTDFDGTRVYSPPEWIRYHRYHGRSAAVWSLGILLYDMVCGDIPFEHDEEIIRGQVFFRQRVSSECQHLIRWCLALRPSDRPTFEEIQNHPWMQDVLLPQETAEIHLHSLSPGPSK

[14] = biological target: PDGFRB (human) (UniProt P09619); assay: KINOMEscan competition binding; conditions: compound 10.0 µM
[15] = biological target: PIK3CG (human) (UniProt P48736); assay: KINOMEscan competition binding; conditions: compound 10.0 µM
[16] = biological target: PIM3 (human) (UniProt Q86V86); assay: KINOMEscan competition binding; conditions: compound 10.0 µM
[17] = biological target: STK17A (human) (UniProt Q9UEE5); assay: KINOMEscan competition binding; conditions: compound 10.0 µM
Sequence of STK17A (human) (Q9UEE5 whole entry, looked up): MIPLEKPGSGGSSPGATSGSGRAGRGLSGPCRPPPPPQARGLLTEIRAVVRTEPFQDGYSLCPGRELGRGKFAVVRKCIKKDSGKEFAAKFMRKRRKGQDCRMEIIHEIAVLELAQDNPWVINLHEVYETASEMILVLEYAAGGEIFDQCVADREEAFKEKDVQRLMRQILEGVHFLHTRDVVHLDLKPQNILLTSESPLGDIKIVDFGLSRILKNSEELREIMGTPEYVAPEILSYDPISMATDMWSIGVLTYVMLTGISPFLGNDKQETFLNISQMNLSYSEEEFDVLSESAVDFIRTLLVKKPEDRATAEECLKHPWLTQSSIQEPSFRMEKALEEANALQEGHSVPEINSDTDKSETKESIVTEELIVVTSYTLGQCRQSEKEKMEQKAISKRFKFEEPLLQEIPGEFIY

[18] = biological target: SRPK1 (human) (UniProt Q96SB4); assay: KINOMEscan competition binding; conditions: compound 10.0 µM
[19] = biological target: PIK3CB (human) (UniProt P42338); assay: KINOMEscan competition binding; conditions: compound 10.0 µM
Sequence of PIK3CB (human) (P42338 whole entry, looked up): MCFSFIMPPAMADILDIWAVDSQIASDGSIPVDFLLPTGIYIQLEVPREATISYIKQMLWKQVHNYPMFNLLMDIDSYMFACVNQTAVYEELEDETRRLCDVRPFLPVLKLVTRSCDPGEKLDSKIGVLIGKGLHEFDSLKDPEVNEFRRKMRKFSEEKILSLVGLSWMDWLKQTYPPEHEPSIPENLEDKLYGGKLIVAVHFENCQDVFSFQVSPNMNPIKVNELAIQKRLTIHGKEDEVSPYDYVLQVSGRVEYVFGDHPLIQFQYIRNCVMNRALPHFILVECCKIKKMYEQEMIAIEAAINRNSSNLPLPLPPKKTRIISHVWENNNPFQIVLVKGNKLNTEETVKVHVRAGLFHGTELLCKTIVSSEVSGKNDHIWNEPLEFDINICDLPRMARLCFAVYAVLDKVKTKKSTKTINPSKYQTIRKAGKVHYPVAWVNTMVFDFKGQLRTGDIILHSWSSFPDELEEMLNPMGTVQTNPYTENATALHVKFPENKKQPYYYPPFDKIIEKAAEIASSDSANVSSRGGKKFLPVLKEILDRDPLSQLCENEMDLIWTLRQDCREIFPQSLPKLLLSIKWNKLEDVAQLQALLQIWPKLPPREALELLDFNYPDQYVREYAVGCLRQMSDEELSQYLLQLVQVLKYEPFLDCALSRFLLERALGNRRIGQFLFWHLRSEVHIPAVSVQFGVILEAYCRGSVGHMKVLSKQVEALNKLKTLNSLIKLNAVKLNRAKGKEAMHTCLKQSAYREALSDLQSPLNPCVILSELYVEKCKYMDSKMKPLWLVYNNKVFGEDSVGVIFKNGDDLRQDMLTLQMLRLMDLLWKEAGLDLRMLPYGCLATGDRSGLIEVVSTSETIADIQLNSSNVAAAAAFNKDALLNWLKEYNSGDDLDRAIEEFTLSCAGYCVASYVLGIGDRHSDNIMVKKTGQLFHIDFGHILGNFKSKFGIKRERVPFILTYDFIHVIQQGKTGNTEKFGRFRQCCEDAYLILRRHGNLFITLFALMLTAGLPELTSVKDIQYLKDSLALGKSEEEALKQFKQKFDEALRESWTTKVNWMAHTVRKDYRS

[20] = biological target: DAPK1 (human) (UniProt P53355); assay: KINOMEscan competition binding; conditions: compound 10.0 µM
[21] = biological target: ZAP70 (human) (UniProt P43403); assay: KINOMEscan competition binding; conditions: compound 10.0 µM
Sequence of ZAP70 (human) (P43403 whole entry, looked up): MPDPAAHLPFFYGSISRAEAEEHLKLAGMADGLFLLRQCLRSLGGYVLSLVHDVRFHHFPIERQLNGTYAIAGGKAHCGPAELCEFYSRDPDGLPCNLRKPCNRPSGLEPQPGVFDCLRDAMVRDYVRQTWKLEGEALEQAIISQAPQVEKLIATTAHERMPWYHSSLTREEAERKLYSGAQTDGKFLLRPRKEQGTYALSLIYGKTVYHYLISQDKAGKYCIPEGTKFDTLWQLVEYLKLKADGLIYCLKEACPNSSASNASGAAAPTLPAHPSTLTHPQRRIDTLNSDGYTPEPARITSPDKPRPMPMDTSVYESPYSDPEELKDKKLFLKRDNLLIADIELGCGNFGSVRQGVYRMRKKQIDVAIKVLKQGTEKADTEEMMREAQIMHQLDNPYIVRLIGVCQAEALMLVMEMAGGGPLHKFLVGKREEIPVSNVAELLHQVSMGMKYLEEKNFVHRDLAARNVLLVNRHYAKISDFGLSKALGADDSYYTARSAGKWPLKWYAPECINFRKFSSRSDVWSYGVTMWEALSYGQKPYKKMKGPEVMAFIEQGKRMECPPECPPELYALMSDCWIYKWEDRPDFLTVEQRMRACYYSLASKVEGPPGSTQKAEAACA

[22] = biological target: CLK1 (human) (UniProt P49759); assay: KINOMEscan competition binding; conditions: compound 10.0 µM
[23] = biological target: PIM2 (human) (UniProt Q9P1W9); assay: KINOMEscan competition binding; conditions: compound 10.0 µM
Sequence of PIM2 (human) (Q9P1W9 whole entry, looked up): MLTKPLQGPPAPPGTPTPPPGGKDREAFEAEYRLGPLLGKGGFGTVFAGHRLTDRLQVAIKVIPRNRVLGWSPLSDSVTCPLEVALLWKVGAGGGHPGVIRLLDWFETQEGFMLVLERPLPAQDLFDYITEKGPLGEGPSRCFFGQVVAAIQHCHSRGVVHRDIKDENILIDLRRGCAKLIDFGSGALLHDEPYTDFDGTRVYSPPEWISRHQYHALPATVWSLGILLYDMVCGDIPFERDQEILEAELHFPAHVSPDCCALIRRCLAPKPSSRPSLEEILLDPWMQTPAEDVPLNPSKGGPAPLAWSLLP

[24] = biological target: STK17B (human) (UniProt O94768); assay: KINOMEscan competition binding; conditions: compound 10.0 µM
Sequence of STK17B (human) (O94768 whole entry, looked up): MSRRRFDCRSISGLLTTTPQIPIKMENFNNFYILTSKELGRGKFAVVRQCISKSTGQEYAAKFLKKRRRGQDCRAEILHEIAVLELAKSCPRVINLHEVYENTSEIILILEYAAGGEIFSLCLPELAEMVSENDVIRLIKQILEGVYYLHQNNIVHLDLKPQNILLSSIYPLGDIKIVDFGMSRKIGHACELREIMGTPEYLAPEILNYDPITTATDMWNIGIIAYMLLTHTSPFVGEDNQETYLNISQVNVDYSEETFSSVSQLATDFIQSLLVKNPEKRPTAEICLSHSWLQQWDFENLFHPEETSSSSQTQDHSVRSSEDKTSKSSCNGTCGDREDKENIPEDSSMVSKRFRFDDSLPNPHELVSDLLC

[25] = biological target: HIPK1 (human) (UniProt Q86Z02); assay: KINOMEscan competition binding; conditions: compound 10.0 µM
Sequence of HIPK1 (human) (Q86Z02 whole entry, looked up): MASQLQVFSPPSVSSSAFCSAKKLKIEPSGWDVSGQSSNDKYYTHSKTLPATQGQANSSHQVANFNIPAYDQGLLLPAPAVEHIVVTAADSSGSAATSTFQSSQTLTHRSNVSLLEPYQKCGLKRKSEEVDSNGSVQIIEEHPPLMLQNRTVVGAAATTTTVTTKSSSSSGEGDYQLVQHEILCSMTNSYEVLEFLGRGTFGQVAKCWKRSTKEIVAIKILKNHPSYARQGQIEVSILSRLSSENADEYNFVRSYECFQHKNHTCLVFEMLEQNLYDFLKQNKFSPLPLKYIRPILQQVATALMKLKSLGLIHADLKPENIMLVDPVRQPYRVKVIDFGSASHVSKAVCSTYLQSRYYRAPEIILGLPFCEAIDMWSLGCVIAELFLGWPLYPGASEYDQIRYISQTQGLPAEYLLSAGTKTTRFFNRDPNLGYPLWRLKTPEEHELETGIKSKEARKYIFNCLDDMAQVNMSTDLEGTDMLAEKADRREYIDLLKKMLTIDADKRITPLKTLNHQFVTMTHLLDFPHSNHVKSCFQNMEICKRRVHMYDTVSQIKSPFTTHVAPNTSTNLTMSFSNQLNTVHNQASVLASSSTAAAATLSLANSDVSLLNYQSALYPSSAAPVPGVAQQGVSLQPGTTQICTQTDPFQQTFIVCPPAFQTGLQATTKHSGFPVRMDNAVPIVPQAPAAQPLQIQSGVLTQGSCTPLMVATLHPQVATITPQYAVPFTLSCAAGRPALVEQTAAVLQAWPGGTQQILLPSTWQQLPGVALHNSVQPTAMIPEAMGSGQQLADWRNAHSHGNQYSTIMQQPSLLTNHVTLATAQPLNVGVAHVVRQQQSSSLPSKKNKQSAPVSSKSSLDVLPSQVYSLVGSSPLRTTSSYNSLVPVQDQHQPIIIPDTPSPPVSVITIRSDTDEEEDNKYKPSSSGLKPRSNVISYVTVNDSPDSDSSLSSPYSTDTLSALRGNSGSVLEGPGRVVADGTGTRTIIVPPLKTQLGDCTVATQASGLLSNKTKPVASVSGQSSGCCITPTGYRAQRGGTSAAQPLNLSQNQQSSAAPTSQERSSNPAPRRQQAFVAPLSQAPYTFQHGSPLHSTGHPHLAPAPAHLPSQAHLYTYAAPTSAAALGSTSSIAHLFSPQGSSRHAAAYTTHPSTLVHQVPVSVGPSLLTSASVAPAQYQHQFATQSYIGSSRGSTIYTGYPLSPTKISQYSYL

[26] = biological target: PLK1 (human) (UniProt P53350); assay: KINOMEscan competition binding; conditions: compound 10.0 µM
[27] = biological target: CLK2 (human) (UniProt P49760); assay: KINOMEscan competition binding; conditions: compound 10.0 µM
[28] = biological target: SRPK3 (human) (UniProt Q9UPE1); assay: KINOMEscan competition binding; conditions: compound 10.0 µM
[29] = biological target: RIOK1 (human) (UniProt Q9BRS2); assay: KINOMEscan competition binding; conditions: compound 10.0 µM
[30] = biological target: RIOK3 (human) (UniProt O14730); assay: KINOMEscan competition binding; conditions: compound 10.0 µM
[31] = biological target: RPS6KA6 KD2 (human) (UniProt Q9UK32); assay: KINOMEscan competition binding; conditions: compound 10.0 µM
[32] = biological target: TLK1 (human) (UniProt Q9UKI8); assay: KINOMEscan competition binding; conditions: compound 10.0 µM
[33] = biological target: STK24 (human) (UniProt Q9Y6E0); assay: KINOMEscan competition binding; conditions: compound 10.0 µM
[34] = biological target: PAK2 (human) (UniProt Q13177); assay: KINOMEscan competition binding; conditions: compound 10.0 µM
[35] = biological target: JAK1 JH2 pseudokinase (human) (UniProt P23458); assay: KINOMEscan competition binding; conditions: compound 10.0 µM
[36] = biological target: TGFBR2 (human) (UniProt P37173); assay: KINOMEscan competition binding; conditions: compound 10.0 µM
[37] = biological target: ACVR2A (human) (UniProt P27037); assay: KINOMEscan competition binding; conditions: compound 10.0 µM
[38] = biological target: ACVR2B (human) (UniProt Q13705); assay: KINOMEscan competition binding; conditions: compound 10.0 µM
[39] = biological target: PLK4 (human) (UniProt O00444); assay: KINOMEscan competition binding; conditions: compound 10.0 µM
[40] = biological target: GAK (human) (UniProt O14976); assay: KINOMEscan competition binding; conditions: compound 10.0 µM
[41] = biological target: BTK (human) (UniProt Q06187); assay: KINOMEscan competition binding; conditions: compound 10.0 µM
[42] = biological target: TAOK1 (human) (UniProt Q7L7X3); assay: KINOMEscan competition binding; conditions: compound 10.0 µM
[43] = biological target: MYLK4 (human) (UniProt Q86YV6); assay: KINOMEscan competition binding; conditions: compound 10.0 µM
[44] = biological target: MAP3K7 (human) (UniProt O43318); assay: KINOMEscan competition binding; conditions: compound 10.0 µM
[45] = biological target: MKNK2 (human) (UniProt Q9HBH9); assay: KINOMEscan competition binding; conditions: compound 10.0 µM
[46] = biological target: DYRK1B (human) (UniProt Q9Y463); assay: KINOMEscan competition binding; conditions: compound 10.0 µM
[47] = biological target: TTK (human) (UniProt P33981); assay: KINOMEscan competition binding; conditions: compound 10.0 µM
[48] = biological target: MAPK10 (human) (UniProt P53779); assay: KINOMEscan competition binding; conditions: compound 10.0 µM
[49] = biological target: TYK2 JH2 pseudokinase (human) (UniProt P29597); assay: KINOMEscan competition binding; conditions: compound 10.0 µM
[50] = biological target: CDK7 (human) (UniProt P50613); assay: KINOMEscan competition binding; conditions: compound 10.0 µM
[51] = biological target: NUAK2 (human) (UniProt Q9H093); assay: KINOMEscan competition binding; conditions: compound 10.0 µM
[52] = biological target: CSNK1D (human) (UniProt P48730); assay: KINOMEscan competition binding; conditions: compound 10.0 µM
[53] = biological target: MAP2K4 (human) (UniProt P45985); assay: KINOMEscan competition binding; conditions: compound 10.0 µM
[54] = biological target: RIOK2 (human) (UniProt Q9BVS4); assay: KINOMEscan competition binding; conditions: compound 10.0 µM
[55] = biological target: CLK4 (human) (UniProt Q9HAZ1); assay: KINOMEscan competition binding; conditions: compound 10.0 µM
[56] = biological target: RPS6KA1 KD2 (human) (UniProt Q15418); assay: KINOMEscan competition binding; conditions: compound 10.0 µM
[57] = biological target: GSK3A (human) (UniProt P49840); assay: KINOMEscan competition binding; conditions: compound 10.0 µM
[58] = biological target: PIK3CD (human) (UniProt O00329); assay: KINOMEscan competition binding; conditions: compound 10.0 µM
[59] = biological target: MAP2K3 (human) (UniProt P46734); assay: KINOMEscan competition binding; conditions: compound 10.0 µM
[60] = biological target: MAPK8 (human) (UniProt P45983); assay: KINOMEscan competition binding; conditions: compound 10.0 µM
[61] = biological target: PIM1 (human) (UniProt P11309); assay: SelectScreen, TR FRET
[62] = biological target: PIM2 (human) (UniProt Q9P1W9); assay: SelectScreen, TR FRET

SMILES: O=C1NC(=O)/C(=C/c2c[nH]c(=O)c(-c3ccc(C(=O)Nc4ccc(N5CCNCC5)cc4)cc3)c2)S1
- kinase still bound, per cent of control [1]: 4.4%
- kinase still bound, per cent of control [2]: 24%
- kinase still bound, per cent of control [3]: 22%
- kinase still bound, per cent of control [4]: 24%
- kinase still bound, per cent of control [5]: 6.4%
- kinase still bound, per cent of control [6]: 0.95%
- kinase still bound, per cent of control [7]: 32%
- kinase still bound, per cent of control [8]: 19%
- kinase still bound, per cent of control [9]: 4.8%
- kinase still bound, per cent of control [10]: 29%
- kinase still bound, per cent of control [11]: 27%
- kinase still bound, per cent of control [12]: 26%
- kinase still bound, per cent of control [13]: 9.5%
- kinase still bound, per cent of control [14]: 0%
- kinase still bound, per cent of control [15]: 22%
- kinase still bound, per cent of control [16]: 10%
- kinase still bound, per cent of control [17]: 6.3%
- kinase still bound, per cent of control [18]: 31%
- kinase still bound, per cent of control [19]: 2.4%
- kinase still bound, per cent of control [20]: 3.6%
- kinase still bound, per cent of control [21]: 11%
- kinase still bound, per cent of control [22]: 16%
- kinase still bound, per cent of control [23]: 1.2%
- kinase still bound, per cent of control [24]: 0.6%
- kinase still bound, per cent of control [25]: 9%
- kinase still bound, per cent of control [26]: 17%
- kinase still bound, per cent of control [27]: 0.45%
- kinase still bound, per cent of control [28]: 28%
- kinase still bound, per cent of control [29]: 14%
- kinase still bound, per cent of control [30]: 13%

SMILES: N=C1NC(=O)/C(=C/c2ccc(-c3cccc4cc[nH]c34)o2)S1
- kinase still bound, per cent of control [31]: 30%
- kinase still bound, per cent of control [32]: 22%
- kinase still bound, per cent of control [33]: 27%
- kinase still bound, per cent of control [4]: 26%
- kinase still bound, per cent of control [34]: 32%
- kinase still bound, per cent of control [35]: 30%
- kinase still bound, per cent of control [5]: 12%
- kinase still bound, per cent of control [7]: 24%
- kinase still bound, per cent of control [36]: 5.8%
- kinase still bound, per cent of control [9]: 16%
- kinase still bound, per cent of control [37]: 25%
- kinase still bound, per cent of control [38]: 20%
- kinase still bound, per cent of control [10]: 24%
- kinase still bound, per cent of control [39]: 18%
- kinase still bound, per cent of control [40]: 5%
- kinase still bound, per cent of control [41]: 18%
- kinase still bound, per cent of control [42]: 6%
- kinase still bound, per cent of control [43]: 32%
- kinase still bound, per cent of control [13]: 4.9%
- kinase still bound, per cent of control [44]: 34%
- kinase still bound, per cent of control [45]: 11%
- kinase still bound, per cent of control [16]: 4%
- kinase still bound, per cent of control [46]: 7.4%
- kinase still bound, per cent of control [47]: 21%
- kinase still bound, per cent of control [48]: 31%
- kinase still bound, per cent of control [17]: 0.05%
- kinase still bound, per cent of control [49]: 2.2%
- kinase still bound, per cent of control [50]: 20%
- kinase still bound, per cent of control [51]: 21%
- kinase still bound, per cent of control [52]: 30%
- kinase still bound, per cent of control [53]: 3.9%
- kinase still bound, per cent of control [19]: 4.5%
- kinase still bound, per cent of control [20]: 4.4%
- kinase still bound, per cent of control [21]: 8.2%
- kinase still bound, per cent of control [54]: 5.5%
- kinase still bound, per cent of control [22]: 17%
- kinase still bound, per cent of control [23]: 0.45%
- kinase still bound, per cent of control [24]: 0.4%
- kinase still bound, per cent of control [55]: 20%
- kinase still bound, per cent of control [56]: 17%
- kinase still bound, per cent of control [25]: 0.45%
- kinase still bound, per cent of control [57]: 20%
- kinase still bound, per cent of control [58]: 23%
- kinase still bound, per cent of control [59]: 17%
- kinase still bound, per cent of control [27]: 7.7%
- kinase still bound, per cent of control [60]: 14%
- IC50 [61]: 961 nM
- IC50 [62]: 1770 nM
